The test system of experiment [1] is bacterial strains that express the class D cephalosporinase OXA-15. Nature of the experiment: Standard BLI potentiation MIC / synergy MIC (sMIC) assays run in the presence of a β-lactam, OXA-15 expressing strains. The class given is cell-based, E. coli. The note with it: BLI in combination with a β-lactam; comparison with Avibactam (comparator compound CCC). The gist of the method: (§1)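 Isogenic E. coli DH10B carrying cloned β-lactamase genes on pBR322-derived plasmid (blaTEM-1 promoter, tetracycline 25 μg/mL) tested by CLSI broth microdilution in CAMHB. Test compound and β-lactam each diluted and combined; MIC reported in presence of β-lactam.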

The test system of experiment [2] is bacterial strains that express KPC β-lactamases. Briefly: Standard BLI potentiation MIC / synergy MIC (sMIC) assays run in the presence of a β-lactam, KPC expressing strains. The class given is cell-based. The note with it: more active for at least one KPC strain and/or better spectrum of activity than Avibactam; BLI in combination with a β-lactam. The method, boiled down:
as §1

Counter-ions that a name gives are not always drawn.

On to `N=C(N)N[C@H]1C[C@@H](c2nnc([C@@H]3CC[C@@H]4CN3C(=O)N4OS(=O)(=O)O)s2)C1` [Compound 784, (2S,5R)-2-(5-((1s,3R)-3-guanidinocyclobutyl)-1,3,4-thiadiazol-2-yl)-7-oxo-1,6-diazabicyclo[3.2.1]octan-6-yl hydrogen sulfate], for which the “activity against bacterial strains that express the class D cephalosporinase OXA-15, compared with Avibactam” value in experiment [1] was “more active than Avibactam”. In addition, the “activity and/or spectrum of activity against bacterial strains that express KPC β-lactamases, compared with Avibactam” value in experiment [2] is reported as “more active than Avibactam”.
With `N=C(N)NCCc1nnc([C@@H]2CC[C@@H]3CN2C(=O)N3OS(=O)(=O)O)s1` [Compound 794, (2S,5R)-2-(5-(2-guanidinoethyl)-1,3,4-thiadiazol-2-yl)-7-oxo-1,6-diazabicyclo[3.2.1]octan-6-yl hydrogen sulfate], the “activity against bacterial strains that express the class D cephalosporinase OXA-15, compared with Avibactam” value in experiment [1] is “more active than Avibactam”. For the same molecule, in experiment [2], the “activity and/or spectrum of activity against bacterial strains that express KPC β-lactamases, compared with Avibactam” value is listed as “more active than Avibactam”.
For the molecule `N[C@H]1C[C@@H](c2nnc([C@@H]3CC[C@@H]4CN3C(=O)N4OS(=O)(=O)O)s2)C1` [Compound 795, (2S,5R)-2-(5-((1s,3R)-3-aminocyclobutyl)-1,3,4-thiadiazol-2-yl)-7-oxo-1,6-diazabicyclo[3.2.1]octan-6-yl hydrogen sulfate], the “activity against bacterial strains that express the class D cephalosporinase OXA-15, compared with Avibactam” value in experiment [1] was “more active than Avibactam”. Moreover, the “activity and/or spectrum of activity against bacterial strains that express KPC β-lactamases, compared with Avibactam” value in experiment [2] was “more active than Avibactam”.

The values above are taken from patent US8962844B2, “1,3,4-oxadiazole and 1,3,4-thiadiazole β-lactamase inhibitors” (priority 2012, dated 2015).
